Literature values as cited in US20240424165A1, “NEW COATING OF IMPLANTS” (Universität Münster, priority 2021, published 2024).
Converted amounts (≈) assume the structure as drawn.

System: S. aureus

## CO[C@H]1/C=C/O[C@@]2(C)Oc3c(C)c(O)c4c(O)c(c(/C=N/N5CCN(C)CC5)c(O)c4c3C2=O)NC(=O)/C(C)=C\C=C\[C@H](C)[C@H](O)[C@@H](C)[C@@H](O)[C@@H](C)[C@H](OC(C)=O)[C@@H]1C [rifampin]
  MIC: 0.06 µg/mL (≈ 0.0729 µM)
